These are literature values, as cited in patent publication US20250215044A1, “Compounds and Methods for Inhibiting LPA” (Ionis Pharmaceuticals, Inc., priority 2023, published 2025).

For this series, the system named is plasma Lp(a). Further details: concentration or dose not given beside the values. Particulars: clinical setting.

For the compound `O=C(O)c1cccnc1` [Niaspan], the “reduction of plasma Lp(a) levels” value is listed as 39%.
Consider `CC(=O)Oc1ccccc1C(=O)O` [aspirin], for which the “reduction of plasma Lp(a) levels” value was 18%.
In the case of `COc1cc(F)c(C(C)C)cc1-c1ccc(C(F)(F)F)cc1CN1C(=O)O[C@H](c2cc(C(F)(F)F)cc(C(F)(F)F)c2)[C@@H]1C` [Anacetrapib], the “reduction of plasma Lp(a) levels” value is reported as 36%.
Take `CC(C)c1cc(Oc2c(Br)cc(NC(=O)CC(=O)O)cc2Br)ccc1O` [Epirotirome]: the “reduction of plasma Lp(a) levels” value was 43%.
Consider Mipomersen, for which the “reduction of plasma Lp(a) levels” value is 32%.
Consider `O=C(NC1CCN(CCCCC2(C(=O)NCC(F)(F)F)c3ccccc3-c3ccccc32)CC1)c1ccccc1-c1ccc(C(F)(F)F)cc1` [Lomitapide], for which the “reduction of plasma Lp(a) levels” value is recorded as 17%.
